target: human Cereblon WT GST-tagged protein (Homo sapiens (Human), UniProt Q96SW2); assay: CRBN-binding affinity, CEREBLON BINDING kit (HTRF); details: HTRF inhibitory activity, binding to CRBN
Excerpt: Determination of CRBN-Binding Affinity of Compounds
The CEREBLON BINDING kits (specification: 10,000 tests; product number: Catalog #64BDCRBNPEH; CISBIO company) was used to determine the CRBN binding ability of the compounds to be tested through a HTRF method (homogeneous time-resolved fluorescence). The specific methods are as follows: • 1. According to the instructions of the CEREBLON BINDING kits, the compounds to be tested of the present invention and lenalidomide were serially diluted using diluent #9 (1×) solution to obtain a final concentration of 2 μM for both the tested compounds and lenalidomide solution. • 2.2.5 μL of the above 2 μM of the tested compounds and lenalidomide solution, as well as the same volume of diluent #9 (1×) solution (solvent control group, Std0) were taken and added to each well of a 96-well plate, respectively. Then, 2.5 μL of (human Cereblon WT GST-tagged protein) solution was added to each well. Finally, 5 μL of the uniformly mixed thalidomide-Red reagent and GST Eu antibody working solution were added to each of the above wells. The final concentration of the tested compounds and lenalidomide in each well is 0.5 μM. • 3. The blank control wells were sequentially added with 2.5 μL of diluent #9 (1×) solution, 2.5 μL of PROTAC binding buffer, and 5 μL of uniformly mixed thalidomide-Red reagent and GST Eu antibody working solution. • 4. After sealing and incubating the solutions in the above wells at room temperature for 3 hours, the absorbance values at emission wavelengths of 620 nm and 665 nm were detected by the HTRF method using a Spark microplate reader (V3.1 SP1).
The corresponding CRBN binding inhibition rate was calculated using the following method: […]
Note: OD 665 nmcompound is the absorbance value of each well of the compounds to be tested of the present disclosure at an emission wavelength of 665 nm.
OD 620 nmcompound is the absorbance value of each well of the compounds to be tested of the present disclosure at an emission wavelength of 620 nm.
OD 665 nmcontrol is the absorbance value of the blank control well at an emission wavelength of 665 nm.
OD 620 nmcontrol is the absorbance value of the blank control well at an emission wavelength of 620 nm.
OD 665 nmstd0 is the absorbance value of the solvent control well at an emission wavelength of 665 nm.
OD 620 nmstd0 is the absorbance value of the solvent control well at an emission wavelength of 620 nm.

Chain of human Cereblon WT GST-tagged protein (Q96SW2 whole entry): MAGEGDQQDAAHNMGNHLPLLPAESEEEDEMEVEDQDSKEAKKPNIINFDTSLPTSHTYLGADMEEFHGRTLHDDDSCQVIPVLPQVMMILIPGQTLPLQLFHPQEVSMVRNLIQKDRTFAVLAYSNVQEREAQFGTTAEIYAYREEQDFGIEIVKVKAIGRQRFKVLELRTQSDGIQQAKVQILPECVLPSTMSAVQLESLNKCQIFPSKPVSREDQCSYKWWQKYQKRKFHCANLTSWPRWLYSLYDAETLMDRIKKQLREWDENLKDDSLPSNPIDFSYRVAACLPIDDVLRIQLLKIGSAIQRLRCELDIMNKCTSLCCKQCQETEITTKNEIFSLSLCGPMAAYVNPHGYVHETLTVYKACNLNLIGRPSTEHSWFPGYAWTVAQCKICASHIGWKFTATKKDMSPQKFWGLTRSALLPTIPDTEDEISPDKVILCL

| IC50 [µM] | Structure (SMILES) |
| --- | --- |
| 2.52 | Cc1nc2cccc(NCCCCCCCN3CCN(C4COC4)CC3)c2c(=O)n1C1CCC(=O)NC1=O (stereo not drawn) [GT-02623, 3-(2-methyl-5-((7-(4-(oxetan-3-yl)piperazin-1-yl)heptyl)amino)-4-oxoquinazolin-3(4H)-yl)piperidine-2,6-dione] |
| 2.15 | Cc1nc2cccc(SCCN3CCN(CC45CC6CC(CC(C6)C4)C5)CC3)c2c(=O)n1C1CCC(=O)NC1=O (stereo not drawn) [GT-03259, 3-(5-((2-(4-(((3r,5r,7r)-adamantan-1-yl)methyl)piperazin-1-yl)ethyl)thio)-2-methyl-4-oxoquinazolin-3(4H)-yl)piperidine-2,6-dione] |
| 2.24 | Cc1nc2cccc(C#CCN3CCN(Cc4ccc(C56CC7CC(CC(C7)C5)C6)cc4)CC3)c2c(=O)n1C1CCC(=O)NC1=O (stereo not drawn) [GT-03233, 3-(5-(3-(4-(4-((3r,5r,7r)-adamantan-1-yl)benzyl)piperazin-1-yl)prop-1-yn-1-yl)-2-methyl-4-oxoquinazolin-3(4H)-yl)piperidine-2,6-dione] |
| 2.24 | Cc1nc2cccc(CN3CCN(CC45CC6CC(CC(C6)C4)C5)CC3)c2c(=O)n1C1CCC(=O)NC1=O (stereo not drawn) [GT-03227, 3-(5-((4-(((3r,5r,7r)-adamantan-1-yl)methyl)piperazin-1-yl)methyl)-2-methyl-4-oxoquinazolin-3(4H)-yl)piperidine-2,6-dione] |
| 3.58 | Cc1nc2cccc(CN3CCN(C(=O)C45CC6CC(CC(C6)C4)C5)CC3)c2c(=O)n1C1CCC(=O)NC1=O (stereo not drawn) [GT-03317, 3-(5-((4-((1s,3s)-adamantane-1-carbonyl)piperazin-1-yl)methyl)-2-methyl-4-oxoquinazolin-3(4H)-yl)piperidine-2,6-dione] |
| 2.8 | Cc1nc2cccc(C#CCCCCCCN3CCN(C)CC3)c2c(=O)n1C1CCC(=O)NC1=O (stereo not drawn) [GT-02645, 3-(2-methyl-5-(8-(4-methylpiperazin-1-yl)oct-1-yn-1-yl)-4-oxoquinazolin-3(4H)-yl)piperidine-2,6-dione] |
| 3.34 | Cc1nc2cccc(NCCOCCNC34CC5CC(CC(C5)C3)C4)c2c(=O)n1C1CCC(=O)NC1=O (stereo not drawn) [GT-02234, 3-(5-((2-(2-(((1s,3s)-adamantan-1-yl)amino)ethoxy)ethyl)amino)-2-methyl-4-oxoquinazolin-3(4H)-yl)piperidine-2,6-dione] |
| 1.98 | Cc1nc2cccc(SCCN3CCN(Cc4ccc(C56CC7CC(CC(C7)C5)C6)cc4)CC3)c2c(=O)n1C1CCC(=O)NC1=O (stereo not drawn) [GT-03315, 3-(5-((2-(4-(4-((1s,3s)-adamantan-1-yl)benzyl)piperazin-1-yl)ethyl)thio)-2-methyl-4-oxoquinazolin-3(4H)-yl)piperidine-2,6-dione] |

Further lines, the compound ahead of its results:

| Structure (SMILES) | IC50 [µM] |
| --- | --- |
| Cc1nc2cccc(CN3CCNCC3)c2c(=O)n1C1CCC(=O)NC1=O (stereo not drawn) [GT-03228, 3-(2-methyl-4-oxo-5-(piperazin-1-ylmethyl)quinazolin-3(4H)-yl)piperidine-2,6-dione] | 1.84 |
| Cc1nc2cccc(CN3CCN(CCC45CC6CC(CC(C6)C4)C5)CC3)c2c(=O)n1C1CCC(=O)NC1=O (stereo not drawn) [GT-03261, 3-(5-((4-(2-((3r,5r,7r)-adamantan-1-yl)ethyl)piperazin-1-yl)methyl)-2-methyl-4-oxoquinazolin-3(4H)-yl)piperidine-2,6-dione] | 1 |
| Cc1nc2cccc(NCCCCCCCN3CC4CC(C3)O4)c2c(=O)n1C1CCC(=O)NC1=O (stereo not drawn) [GT-02621, 3-(5-((7-(6-oxa-3-azabicyclo[3.1.1]heptan-3-yl)heptyl)amino)-2-methyl-4-oxoquinazolin-3(4H)-yl)piperidine-2,6-dione] | 1.04 |
| Cc1nc2cccc(NCCCCCCCN3CCC(N4CCOCC4)CC3)c2c(=O)n1C1CCC(=O)NC1=O (stereo not drawn) [GT-02622, 3-(2-methyl-5-((7-(4-morpholinopiperidin-1-yl)heptyl)amino)-4-oxoquinazolin-3(4H)-yl)piperidine-2,6-dione] | 2.48 |
| Cc1nc2cccc(NCCOCCOCCNC34CC5CC(CC3C5)C4)c2c(=O)n1C1CCC(=O)NC1=O (stereo not drawn) [GT-02497, 3-(5-((2-(2-(2-(((3as,6as)-hexahydro-2,5-methanopentalen-3a(1H)-yl)amino)ethoxy)ethoxy)ethyl)amino)-2-methyl-4-oxoquinazolin-3(4H)-yl)piperidine-2,6-dione] | 0.66 |
| Cc1nc2cccc(NCCCNC3C4CC5CC(C4)CC3C5)c2c(=O)n1C1CCC(=O)NC1=O (stereo not drawn) [GT-02326, 3-(5-((3-(((1r,3r,5r,7r)-adamantan-2-yl)amino)propyl)amino)-2-methyl-4-oxoquinazolin-3(4H)-yl)piperidine-2,6-dione] | 0.7 |
| Cc1nc2cccc(CCCCCCCCN3CC4CC(C3)O4)c2c(=O)n1C1CCC(=O)NC1=O (stereo not drawn) [GT-02800, 3-(5-(8-(6-oxa-3-azabicyclo[3.1.1]heptan-3-yl)octyl)-2-methyl-4-oxoquinazolin-3(4H)-yl)piperidine-2,6-dione] | 3.4 |
| Cc1nc2cccc(NCCOCCNC34CC5CC(CC3C5)C4)c2c(=O)n1C1CCC(=O)NC1=O (stereo not drawn) [GT-02389, 3-(5-((2-(2-(((3as,6as)-hexahydro-2,5-methanopentalen-3a(1H)-yl)amino)ethoxy)ethyl)amino)-2-methyl-4-oxoquinazolin-3(4H)-yl)piperidine-2,6-dione] | 0.78 |
| Cc1nc2cccc(NC34CC5CC(CC(C5)C3)C4)c2c(=O)n1C1CCC(=O)NC1=O (stereo not drawn) [GT-02601, 3-(5-(((1s,3s)-adamantan-1-yl)amino)-2-methyl-4-oxoquinazolin-3(4H)-yl)piperidine-2,6-dione] | 2.82 |
| Cc1nc2cccc(CN3CCN(Cc4ccc(C56CC7CC(CC(C7)C5)C6)cc4)CC3)c2c(=O)n1C1CCC(=O)NC1=O (stereo not drawn) [GT-03230, 3-(5-((4-(4-((3r,5r,7r)-adamantan-1-yl)benzyl)piperazin-1-yl)methyl)-2-methyl-4-oxoquinazolin-3(4H)-yl)piperidine-2,6-dione] | 2.75 |
| Cc1nc2cccc(C#CCN3CCN(CCC45CC6CC(CC(C6)C4)C5)CC3)c2c(=O)n1C1CCC(=O)NC1=O (stereo not drawn) [GT-03262, 3-(5-(3-(4-(2-((1s,3s)-adamantan-1-yl)ethyl)piperazin-1-yl)prop-1-yn-1-yl)-2-methyl-4-oxoquinazolin-3(4H)-yl)piperidine-2,6-dione] | 1 |
| Cc1nc2cccc(CCCCCCCCN3CCC(N4CCN(C)CC4)CC3)c2c(=O)n1C1CCC(=O)NC1=O (stereo not drawn) [GT-02799, 3-(2-methyl-5-(8-(4-(4-methylpiperazin-1-yl)piperidin-1-yl)octyl)-4-oxoquinazolin-3(4H)-yl)piperidine-2,6-dione] | 2.47 |
| Cc1nc2cccc(CCCCCNC34CC5CC(CC(C5)C3)C4)c2c(=O)n1C1CCC(=O)NC1=O (stereo not drawn) [GT-02759, 3-(5-(5-(((3s,5s,7s)-adamantan-1-yl)amino)pentyl)-2-methyl-4-oxoquinazolin-3(4H)-yl)piperidine-2,6-dione] | 0.05 |
| Cc1nc2cccc(N3C4CC3CN(CCC35CC6CC(CC(C6)C3)C5)C4)c2c(=O)n1C1CCC(=O)NC1=O (stereo not drawn) [GT-04231, 3-(5-(3-(2-((3r,5r,7r)-adamantan-1-yl)ethyl)-3,6-diazabicyclo[3.1.1]heptan-6-yl)-2-methyl-4-oxoquinazolin-3(4H)-yl)piperidine-2,6-dione] | 3.24 |
| Cc1nc2cccc(NCCCCNC3C4CC5CC(C4)CC3C5)c2c(=O)n1C1CCC(=O)NC1=O (stereo not drawn) [GT-02392, 3-(5-((4-(((1r,3r,5r,7r)-adamantan-2-yl)amino)butyl)amino)-2-methyl-4-oxoquinazolin-3(4H)-yl)piperidine-2,6-dione] | 0.99 |
| Cc1nc2cccc(NCCCCCCCN3CCCN(C)CC3)c2c(=O)n1C1CCC(=O)NC1=O (stereo not drawn) [GT-02502, 3-(2-methyl-5-((7-(4-methyl-1,4-diazepan-1-yl)heptyl)amino)-4-oxoquinazolin-3(4H)-yl)piperidine-2,6-dione] | 1.8 |
